Source: PubChem BioAssay (NCI)
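In this assay, cells in 96-well plates receive the compound at five concentrations for 48 hours. Endpoints are linearly interpolated between the surrounding concentrations. GI50 marks 50% less growth. TGI marks complete inhibition of growth.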

Key:
Assay in all cases: NCI tumour cell line growth inhibition, 48 h
HS 578T breast = test system: HS 578T breast
RXF-631 renal = test system: RXF-631 renal
XF 498 CNS = test system: XF 498 CNS
DLD-1 colon = test system: DLD-1 colon
HOP-18 NSCLC = test system: HOP-18 NSCLC
MDA-N = test system: MDA-N
P388 leukemia = test system: P388 leukemia
P388/ADR leukemia = test system: P388/ADR leukemia
SN12K1 renal = test system: SN12K1 renal

SMILES	GI50 (HS 578T breast)	TGI (HS 578T breast)	TGI (RXF-631 renal)	TGI (XF 498 CNS)	TGI (DLD-1 colon)	TGI (HOP-18 NSCLC)	other results
COc1ccc(-c2csc(NC(=O)N3CCN(c4cc5c(cc4F)c(=O)c(C(=O)O)cn5C4CC4)CC3)n2)cc1	2.94 µM	> 100 µM	–	–	–	–	–
C[Si](C)(C)/C=C\CCCN1C(=O)CCC1=O	–	–	> 100 µM	> 100 µM	–	–	–
CC(C)Cc1ccc(C(C)/C=C2\CCC(CN3CCCC3)C2=O)cc1 (stereo not drawn)	–	–	49.9 µM	22 µM	6.67 µM	33.4 µM	–
N/C(=N\c1nc2ccccc2s1)NC(=O)Nc1ccccc1Cl	0.113 µM	10.7 µM	–	–	–	–	–
CN(C)CCCN=c1cc2c(=O)n(CCCN(C)C)c(=O)c3c(NCCCN(C)C)cc4c(O)n(CCCN(C)C)c(=O)c1c4c3-2	1.13 µM	5.03 µM	–	–	–	–	–
COc1ccc(C(=O)C(Br)C(Br)C(=O)O)cc1 (stereo not drawn)	–	> 100 µM	–	–	–	–	TGI (MDA-N): > 100 µM
COC1OC(CBr)C(OC(c2ccccc2)(c2ccccc2)c2ccccc2)C(OC(c2ccccc2)(c2ccccc2)c2ccccc2)C1OC(c1ccccc1)(c1ccccc1)c1ccccc1 (stereo not drawn)	–	89.4 µM	–	–	–	–	TGI (MDA-N): > 100 µM
S=P(c1ccccc1)(c1ccccc1)C1(C2(P(=S)(c3ccccc3)c3ccccc3)CC2)CC1	–	–	> 100 µM	> 100 µM	> 100 µM	–	–
O=C(O)CCSC(=O)Nc1cccc([N+](=O)[O-])c1	–	–	–	–	> 100 µM	–	–
Cc1ccc(NC(=O)CC/C(CC(=O)c2ccc(Cl)cc2)=N\NC(=O)C(=O)NN)cc1C	–	–	–	> 100 µM	> 100 µM	> 100 µM	–
N#C/C(=C/C=C/c1ccccc1)S(=O)c1ccccc1 (stereo not drawn)	2.95 µM	39.8 µM	–	–	–	–	–
O=C(COc1ccc(Cl)cc1)N1N=C(c2ccc([N+](=O)[O-])o2)CC1(O)c1ccccc1 (stereo not drawn)	–	–	24.9 µM	22.3 µM	> 100 µM	–	–
COc1cc([C@@H]2c3cc4c(cc3[C@@H](NCc3ccc(C#N)cc3)C3COC(=O)[C@@H]32)OCO4)cc(OC)c1O (stereo partly drawn)	–	–	–	2.85 µM	5.33 µM	> 100 µM	–
CN(C1=NS(=O)(=O)N=C(N(C)c2ccccc2)O1)c1ccccc1	–	69.9 µM	–	–	–	–	TGI (MDA-N): 32.6 µM
Cc1[nH]c2ccccc2c1C1CC(=O)NC1=O (stereo not drawn)	–	–	–	–	> 100 µM	–	–
C/C(=N\NS(=O)(=O)c1ccc(C)cc1)c1c(O)cc(C)oc1=O	–	–	–	–	> 100 µM	> 100 µM	–
N=C1C(c2nc3ccccc3s2)=C(O)CN1c1ccc(Cl)cc1Cl	25.5 µM	75.9 µM	–	–	–	–	–
O=C(O)CN(c1ccccc1)S(=O)(=O)c1ccc(Cl)cc1	–	–	> 100 µM	–	> 100 µM	> 100 µM	–
O=C1C(Cl)=C(Nc2cccc(O)c2)C(=O)N1c1cccc(Cl)c1	29.3 µM	> 100 µM	–	–	–	–	–

SMILES	GI50 (HS 578T breast)	TGI (HS 578T breast)	TGI (RXF-631 renal)	TGI (XF 498 CNS)	TGI (DLD-1 colon)	TGI (HOP-18 NSCLC)	other results
NNC(=O)CCC(=O)Nc1ccc(Cl)cc1Cl	–	–	> 100 µM	> 100 µM	> 100 µM	–	–
COc1cc2ccc(/C(C)=N/OC(C)=O)cc2cc1OC	–	–	> 100 µM	> 100 µM	–	> 100 µM	–
O=C1/C(=C/c2ccccc2Br)COc2ccc(O)c(O)c21	3.28 µM	21.5 µM	–	–	–	–	–
O=S1c2ccccc2N=C(c2ccc(Cl)cc2)CC1c1cccs1 (stereo not drawn)	–	–	–	–	24.9 µM	71.1 µM	–
N#CC(C(=O)CCC(=O)Nc1ccc(Cl)cc1)c1ccccc1Cl (stereo not drawn)	–	–	> 100 µM	> 100 µM	> 100 µM	–	–
COc1cc2c(=O)n(CCCn3ccnc3)c3c4cc5c(cc4ccc3c2cc1OC)OCO5	2.33 µM	> 80.6 µM	–	–	–	–	–
CCC(c1ccc(OC)cc1)C(CC)c1ccc(O)c(CN2CCCC2)c1 (stereo not drawn)	5.33 µM	23.8 µM	–	–	–	–	–
COc1cc2ccnc3c2c(c1OC)CC1CC(O)C(OC)CC31 (stereo not drawn)	–	–	–	> 100 µM	> 100 µM	> 100 µM	–
O=C1NC(=O)C(=O)C(c2nc3ccccc3s2)C1=O	–	–	–	> 100 µM	> 100 µM	> 100 µM	–
CNC(=O)c1cncc(/C=C/c2c(C)cccc2C)c1	7.19 µM	24.2 µM	–	–	–	–	–
Cc1ccc2c(N/N=C\c3ccco3)cc(C)nc2n1	5.83 µM	29.6 µM	–	–	–	–	–
O=C1/C(=C/c2ccccc2)CN(CCC(=O)N2C/C(=C\c3ccccc3)C(=O)/C(=C/c3ccccc3)C2)C/C1=C\c1ccccc1	10.7 µM	55.4 µM	–	–	–	–	–
CCC1CCCCN1C(=S)N/N=C(\C)c1ccccn1 (stereo not drawn)	1.06 µM	14.5 µM	–	–	–	–	–
C[C@]12CC(C#N)C(=O)C(O)=C1CC[C@@H]1C2CC[C@@]2(C)C1CC[C@@H]2O (stereo partly drawn)	–	–	–	> 100 µM	> 100 µM	–	–
NC1=NC(c2ccccc2)CC(c2cc(Cl)cc(Br)c2O)=N1 (stereo not drawn)	–	–	39.8 µM	33.9 µM	25.8 µM	37.4 µM	TGI (P388 leukemia): > 20.7 µM; TGI (P388/ADR leukemia): > 27.8 µM; TGI (SN12K1 renal): 28.3 µM
CC(=O)NC1C(OCc2ccccc2)OC(COC(=O)CCCCCNc2ccc([N+](=O)[O-])c3[nH]c4ccc(O)cc4c(=O)c23)C(O)C1OC(C)C(=O)N[C@@H](C)C(=O)N[C@H](CCC(=O)OCc1ccccc1)C(N)=O (stereo partly drawn)	–	–	5.35 µM	–	10 µM	10.6 µM	–
CC1=C(/C=C/C2=CC(=C\C(=O)O)/CC(C3=C(C)CCCC3(C)C)C2)C(C)(C)CCC1 (stereo not drawn)	–	–	24.7 µM	27.4 µM	24.5 µM	27 µM	–
O=C(c1cc2c(C(F)(F)F)onc2c2ccccc12)C(F)(F)F	–	–	80.1 µM	–	> 100 µM	> 100 µM	–
